Experimental data from patent publication EP3027213B1, “COMPOSITIONS FOR AMELIORATING AND/OR PREVENTING ADVERSE SIDE EFFECTS IN ANTIBIOTIC THERAPY” (priority 2013, dated 2015).
“Also recorded” adds a separate entry of the source. Read-outs that look alike come from different tables or passages of the source.

Columns and labels:
143B.TK^- cells [1] = experiment: cells; format: cell-based; conditions: Homo sapiens, 240 h, chloramphenicol 50 nM - 300 µM, 10 days
Protocol: The half maximal inhibitory concentration (IC50) is a measure of the effectiveness of a compound in inhibiting biological or biochemical function. This quantitative measure indicates, how much of a particular drug or compound is needed to inhibit a given biological process by half. In this case, the IC50 value was determined for the side-effect of the antibiotic on human cells in the presence or absence of pyruvate and/or uridine. IC50 values were determined utilizing resazurin (Cell-Quanti-Blue Cell Viability Assay Kit, Biotrend Chemikalien GmbH, Köln), a fluorescent dye indicating vital living or dead cells. For the experiment, 24-well culture dishes were seeded with a dilution of 143B.TK^- cells (10^3 cells each). The culture medium was composed of DMEM FG0445 (containing sodium pyruvate, high-glucose, glutamine; at the discretion of the supplier) supplemented with 5% FCS and 0.5 % uridine. After an initial growth of two days, cells were washed in PBS. From here, cells were grown in DMEM F0435 (containg high-glucose, without pyruvate, without glutamine; at the discretion of the supplier) supplemented with 2 % glutamine and 5% FCS. Depending on the subsequent experiments, cell growth medium was further supplemented with: • 1. w/o chloramphenicol, w/o pyruvate, w/o uridine • 2. w chloramphenicol (50 nM - 300 µM), w/o pyruvate, w/o uridine • 3. w chloramphenicol (50 nM - 300 µM), w/o pyruvate, w uridine (50 µg/ml) • 4. w chloramphenicol (50 nM - 300 µM), w pyruvate (100 µg/ml), w/o uridine • 5. w chloramphenicol (50 nM - 300 µM), w pyruvate (100 µg/ml), w uridine (50 µg/ml)
Growth medium was changed every 12 hours. The experiment was carried out for 10 days.
Measures of sets 2-5 were normalized by measure 1. Thus, when cell vitality under chloramphenicol treatment is similar to normal cell growth (measure 1), the ratio of (measure 2, 3, 4, 5) /(measure 1) expressed in % should stay close to 1. […] When pyruvate or pyruvate + uridine were added to the growth medium, IC50 of CAP was out of range (> 300 µM).

143B.TK^- cells [2] = format: cell-based, human
Protocol: Left panel: 143B.TK^- cells containing a green colorizing gene (GFP, green color) were seeded and grown to the original density in normal growth medium (left, 1). At day 1, medium was changed to allow cell growth under pyruvate and uridine free conditions; the medium was supplemented with chloramphenicol (or linezolid, or tigezycline; see example 1). […] At day 6 (image 3), the imaged colony starts to disperse and diminishes. At day 8 (image 4), cell number further declines and cells ceased to exist (day 10). Right panel: 143B.TK^- cells containing a green colorizing gene (GFP, green color) were seeded and grown to the original density in normal growth medium (right, 1). At day 1, medium was changed to allow cell growth under controlled pyruvate and uridine supply; the medium was supplemented with chloramphenicol (or linezolid, or tigezycline; see example 1).
In order to understand the side effects of antibiotics, we incubated cultured human cells with antibiotics that are known to impede cell's metabolism. The experiments were carried out with chloramphenicol, tigezycline or linezolid under otherwise identical conditions. […] Cells were treated with chloramphenicol (150 µg/ml culture medium, 450 µM; or linezolid, or tigezycline) and medium was exchanged on a daily basis. […] After additional 4 days, cells ceased to exist (see figure 1a).

[3] = test system: GFP-colorized 143B.TK- cells; format: cell-based; conditions: human, 13 days, 150 µg/ml
Description: (§1) The panels display co-cultures grown on petri-dishes that contain a human dermal fibroblast (HDF) monolayer inoculated with GFP-colorized 143B.TK- cells imaged by fluorescence microscopy and phase contrast microscopy. The HDF cells represent a resting post-mitotic tissue, while the GFP-colorized 143B.TK- cells mimic mitotic active cells. • Figure 1b, left panel: Without pyruvate and uridine, the side effect of chloramphenicol (or linezolid, or tigezycline) can be visualized on co-cultures similarly to the effect seen in figure 1. Approximately at day 4 of culture, the mitotic active colony enlarges and experiences growth retardation. […] The mitotic cells grow completely regularly. At day 8, the entire area is overgrown by the GFP-colorized 143B.TK^- cells.
(§2) To understand the influence of the antibiotic on cell cycles state, a co-culture was established that was based on a primary fibroblasts monolayer (mimicking cells at resting state) that was inoculated with 143B.TK^- cells (mimicking cells in mitotic state, dividing cells).
(§3) However, the fibroblast layer was completely unaffected and vital to start regrowth again (proven by executing scratches through the monolayer; "wound-healing" set in immediately). […] Both side-effects could be removed by co-administering uridine and/or pyruvate or derivatives thereof.

[4] = test system: human dermal fibroblast (HDF) monolayer; format: cell-based
Description: as §1
(§4) The panels display co-cultures grown on petri-dishes that contain a human dermal fibroblast (HDF) monolayer inoculated with GFP-colorized 143B.TK^- cells and dsRED-colorized 143B.TK^-CAP-res cells. The dsRED-colorized 143B.TK^-CAP-res cells contain a mitochondrial genotype that renders the cells chloramphenicol resistant.
as §2, §3

[5] = test system: GFP-colorized 143B.TK^- cells; format: cell-based; conditions: human
Description: as §4
(§5) To see whether or not the side-effect of these antibiotics reside within the mitochondria of the cell, a co-culture was established that was made of a primary fibroblast monolayer inoculated with 143B.TK^- and 143.TK^-CAP^res cells. The latter cell line is identical to the 143B.TK- cell line, except that these cells carry a CAP resistant mutation within the 16S rRNA gene located within the mitochondrial genome and are differently color coded.

[6] = test system: dsRED-colorized 143B.TK^-CAP-res cells; experiment: Co-culture with chloramphenicol-sensitive and -resistant cells: resistant cells (Fig. 1d); format: cell-based, human; conditions: co-culture on HDF monolayer with 143B.TK^- cells, uridine and pyruvate not supplied
Description: as §4, §5

B. subtilis DSM 347 = experiment: Paper pad agar diffusion test, non-growth zone (Examples 2 and 3); format: cell-based; conditions: APT-plates as is or supplemented with uridine (50 µg/ml), sodium pyruvate (1 mM) or both; three concentrations; over night at 37°C
Protocol: (§6) Paper test pads (Rotiolabo, 6mm, Roth, Karlsruhe) were soaked with 7.5 µl of antibiotic-solution (concentrations used: 0.5 mM CAP; 0.77 mM CAP; 1.2 mM CAP; 0.15 mM LIN; 0.25 mM LIN; 0,4 mM LIN; 0.15 mM TIG; 0.25 mM TIG; 0.4 mM TIG) and placed on top of the agar plates (CAP- and LIN-solutions on APT/B. subtilis plates, TIG-solutions on LB/E. coli plates). Petri dishes were incubated over night at 37°C and analyzed by measuring the size of the non-growth zone of bacteria surrounding the antibiotics soaked paper pads (see figure 3a, and 3b).
(§7) Paper test pads (Rotiolabo, 6mm, Roth, Karlsruhe) were soaked with 7.5 µl of antibiotic-solution (concentrations used: 0.5 mM CAP; 0.77 mM CAP; 1.2 mM CAP; 0.15 mM LIN; 0.25 mM LIN, 0.4 mM LIN; 0.15 mM TIG, 0.25 mM TIG; 0.4 mM TIG; 0.5 mM CAP + 0.15 mM LIN; 0.77 mM CAP + 0.25 mM LIN; 1.2 mM CAP + 0.4 mM LIN; 0.5 mM CAP + 0.15 mM LIN + 0.15 mM TIG; 0.77 mM CAP + 0.25 mM LIN + 0.25 mM TIG; 1.2 mM CAP + 0.4 mM LIN + 0.4 mM TIG; 0.5 mM CAP + 0.15 mM TIG; 0.77 mM CAP + 0.25 mM TIG; 1.2 mM CAP + 0.4 mM TIG) and placed on top of the agar plates (CAP- and LIN-solutions on APT/B. subtilis plates, TIG-solutions on LB/E. coli plates). Petri dishes were incubated over night at 37°C and analyzed by measuring the size of the non-growth zone of bacteria surrounding the antibiotics soaked paper pads (see figure 2a, and 2b).

E. coli DH5α = experiment: as above; format: cell-based; conditions: LB plates as is or supplemented with uridine (50 µg/ml), sodium pyruvate (1 mM) or both; three concentrations; over night at 37°C
Protocol: as §6, §7

[7] = test system: human HT29 rho zero cell line; experiment: Growth of rho zero cells with alternative pyruvate or uridine sources, phase contrast microscopy (Example 5, Fig. 6); format: cell-based; conditions: day 9
Protocol: Side effects of antibiotics can be ameliorated by administration of pyruvate and uridine. This observation can be further substantiated by applying alternative pyruvate or uridine sources, as for example alanine and uridine monophosphate (UMP). • Alternative pyruvate source: To challenge this hypothesis, cells devoid of mitochondrial DNA (rho zero cells) resembling cells that were treated with the antibiotics and have lost their mitochondrial encoded proteins, were cultured in the presence of uridine, alanine and uridine or pyruvate and uridine. […] Cells growth medium was supplemented with uridine (0.2 mM uridine) or alanine (1-10 mM alanine) and uridine (0.2 mM uridine) or pyruvate (1 mM sodium pyruvate) and uridine (0.2 mM uridine) (see figure 6a). […] Thus, pyruvate can be substituted by alternative pyruvate sources to ameliorate side effects of antibiotics. • Alternative uridine source: To challenge this hypothesis, cells devoid of mitochondrial DNA (rho zero cells) resembling cells that were treated with the antibiotics and have lost their mitochondrial encoded proteins, were cultured in the presence of UMP, alanine and UMP or pyruvate and UMP. […] Cells growth medium was supplemented with UMP (0.2 mM UMP) or alanine (1-10 mM alanine) and UMP (0.2 mM UMP) or pyruvate (1 mM sodium pyruvate) and UMP (0.2 mM UMP) (see figure 6b). […] Thus, UMP can be substituted by alternative pyrimidine source to ameliorate side effects of antibiotics.

[8] = 0.2 mM uridine source alone, without any pyruvate source

With `O=C(N[C@H](CO)[C@H](O)c1ccc([N+](=O)[O-])cc1)C(Cl)Cl` [chloramphenicol] the IC50 (143B.TK^- cells [1]; w pyruvate (100 µg/ml), w uridine (50 µg/ml)) was > 300 µM, the IC50 (143B.TK^- cells [1]; w pyruvate (100 µg/ml), w/o uridine) was > 300 µM and the IC50 (143B.TK^- cells [1]; w/o pyruvate, w uridine (50 µg/ml)) was 7.5 µM. For the same molecule, the IC50 (143B.TK^- cells [1]; w/o pyruvate, w/o uridine) was 3.2 µM, the cell growth (143B.TK^- cells [2]) was “growth behavior of the cells was not altered by the antibiotic” and the cell growth (143B.TK^- cells [2]; human, 150 µg/ml) was “cell growth retarded and came to a halt after 6 days”. The “growth of the mitotic active colony” value [3] was “finally ceases to exist at day 13”, the “cell vitality of the HDF monolayer” value [4] was “no change in cell vitality” and the cell growth [5] was “cells stopped growth after 4-5 days and ceased to exist after additional 6 days”. The cell growth [6] was “exhibited no limitation in cell growth; also recorded: not influenced by the side-effect of chloramphenicol and grew regularly”, the cell growth ([6]; listed as CAP) was “not influenced by CAP” and the “Antibiotic effect (size of the non-growth zone)” value (B. subtilis DSM 347) was “not rendered by the co-administered compounds uridine and/or pyruvate; also recorded: independent of pyruvate, uridine or pyruvate + uridine supplementation”. The “Antibiotic effect (size of the non-growth zone)” value (E. coli DH5α) was “independent of pyruvate, uridine or pyruvate + uridine supplementation”.

For `C[C@H](N)C(=O)O` [alanine], the cell growth ([7]; on UMP supplemented media (0.2 mM UMP), alanine 1-10 mM or sodium pyruvate 1 mM) was “displayed regular cell growth; also recorded: cells prosper and grow almost in the same range as normal cells” and the cell growth ([7]; on uridine supplemented media (0.2 mM uridine), alanine 1-10 mM or sodium pyruvate 1 mM) was “displayed regular cell growth; also recorded: cells prosper and grow almost in the same range as normal cells”.

For `CN(C)c1cc(NC(=O)CNC(C)(C)C)c(O)c2c1C[C@H]1C[C@H]3[C@H](N(C)C)C(O)=C(C(N)=O)C(=O)[C@@]3(O)C(O)=C1C2=O` [tigezycline], the cell growth (143B.TK^- cells [2]) was “growth behavior of the cells was not altered by the antibiotic”, the cell growth (143B.TK^- cells [2]; human, 150 µg/ml) was “cell growth retarded and came to a halt after 6 days” and the “growth of the mitotic active colony” value [3] was “finally ceases to exist at day 13”. The “cell vitality of the HDF monolayer” value [4] was “no change in cell vitality” and the “Antibiotic effect (size of the non-growth zone)” value (E. coli DH5α) was “not rendered by the co-administered compounds uridine and/or pyruvate; also recorded: independent of pyruvate, uridine or pyruvate + uridine supplementation”.

With `CC(=O)NC[C@H]1CN(c2ccc(N3CCOCC3)c(F)c2)C(=O)O1` [linezolid] the cell growth (143B.TK^- cells [2]) was “growth behavior of the cells was not altered by the antibiotic”, the cell growth (143B.TK^- cells [2]; human, 150 µg/ml) was “cell growth retarded and came to a halt after 6 days” and the “growth of the mitotic active colony” value [3] was “finally ceases to exist at day 13”. For the same molecule, the “cell vitality of the HDF monolayer” value [4] was “no change in cell vitality” and the “Antibiotic effect (size of the non-growth zone)” value (B. subtilis DSM 347) was “not rendered by the co-administered compounds uridine and/or pyruvate; also recorded: independent of pyruvate, uridine or pyruvate + uridine supplementation”.

`O=c1ccn([C@@H]2O[C@H](CO)[C@@H](O)[C@H]2O)c(=O)[nH]1` [uridine] was tested, and the cell growth [7, 8] was “did not exhibit cell growth; also recorded: cell growth stalls and comes to an halt”.

For `O=c1ccn([C@@H]2O[C@H](COP(=O)(O)O)[C@@H](O)[C@H]2O)c(=O)[nH]1` [UMP, uridine monophosphate], the cell growth [7, 8] was “did not exhibit cell growth; also recorded: cell growth stalls and comes to an halt”.
